Source: DBAASP
In brackets after ≈: the same amount, converted by molar mass.

Key:
Experiment in all cases: ≥ marks a high value that may be exact or a test limit, other limits are often not marked, values filed in µg/mL are converted to µM
[1] = test system: Salmonella enterica subsp. enterica serovar Typhimurium ATCC 14028s
[2] = test system: Escherichia coli CGSC 4908
[3] = test system: Escherichia coli UB1005
[4] = test system: Candida albicans C627
[5] = test system: Escherichia coli DC2
[6] = test system: Aeromonas salmonicida 97-4
[7] = test system: Pseudomonas aeruginosa K799
[8] = test system: Aeromonas salmonicida 99-1
[9] = test system: Pseudomonas aeruginosa Z61
[10] = test system: Staphylococcus aureus C623
[11] = test system: Staphylococcus epidermidis C621
[12] = test system: Salmonella enterica serovar typhimurium MS7953s
[13] = test system: Candida glabrata
[14] = test system: Candida krusei
[15] = test system: Candida tropicalis
[16] = test system: Candida parapsilosis
[17] = test system: Candida albicans ATCC 10231
[18] = test system: Candida albicans
[19] = test system: Salmonella typhimurium KCTC 1926
[20] = test system: Pseudomonas aeruginosa ATCC 27853
[21] = test system: Bacillus subtilis KCTC 1998
[22] = test system: Staphylococcus aureus CCARM 3090
[23] = test system: Escherichia coli CCARM 1238
[24] = test system: Staphylococcus aureus ATCC 25923
[25] = test system: Trichosporon beigelii KCTC 7707
[26] = test system: Pseudomonas aeruginosa 4007
[27] = test system: Staphylococcus aureus CCARM 3518
[28] = test system: Escherichia coli ATCC 25922
[29] = test system: Listeria monocytogenes KCTC 3710
[30] = test system: Candida albicans KCTC 7270
[31] = test system: Pseudomonas aeruginosa 4891
[32] = test system: Escherichia coli CCARM 1229

SMILES	MIC [1] [µM]	MIC [2] [µM]	MIC [3] [µM]	MIC [4] [µM]	MIC [5] [µM]	MIC [6] [µM]	MIC [7] [µM]	MIC [8] [µM]	MIC [9] [µM]	MIC [10] [µM]	MIC [11] [µM]	MIC [12] [µM]	MIC [19] [µM]	MIC [20] [µM]	MIC [21] [µM]	MIC [22] [µM]	MIC [23] [µM]	MIC [24] [µM]	MIC [25] [µM]	MIC [26] [µM]	other results
CC(C)C[C@H](NC(=O)[C@H](Cc1ccc(O)cc1)NC(=O)[C@H](C)NC(=O)[C@@H](NC(=O)[C@H](CC(C)C)NC(=O)[C@H](C)NC(=O)[C@H](C)NC(=O)[C@H](CCCCN)NC(=O)CNC(=O)[C@@H](NC(=O)[C@H](Cc1cnc[nH]1)NC(=O)[C@H](CCCCN)NC(=O)CNC(=O)[C@@H](NC(=O)[C@H](Cc1cnc[nH]1)NC(=O)[C@@H](NC(=O)[C@H](C)NC(=O)[C@H](CCCCN)NC(=O)[C@H](CCCCN)NC(=O)[C@H](Cc1ccccc1)NC(=O)[C@H](Cc1c[nH]c2ccccc12)NC(=O)[C@H](CCCCN)NC(=O)CNC(=O)[C@H](Cc1c[nH]c2ccccc12)NC(=O)[C@@H](N)CCCN=C(N)N)[C@@H](C)O)C(C)C)C(C)C)[C@@H](C)O)C(N)=O [RWGKWFKKATHVGKHVGKAALTAYL]	2.8 (≈ 8 µg/mL)	1.4 (≈ 4 µg/mL)	1.4 (≈ 4 µg/mL)	5.61 (≈ 16 µg/mL)	1.4 (≈ 4 µg/mL)	0.701 (≈ 2 µg/mL)	1.4 (≈ 4 µg/mL)	1.4 (≈ 4 µg/mL)	0.701 (≈ 2 µg/mL)	22.4 (≈ 64 µg/mL)	22.4 (≈ 64 µg/mL)	0.701 (≈ 2 µg/mL)	–	–	–	–	–	–	–	–	–
CC[C@H](C)[C@H](NC(=O)[C@@H](NC(=O)CNC(=O)[C@H](CCCN=C(N)N)NC(=O)[C@H](CCC(N)=O)NC(=O)[C@H](Cc1cnc[nH]1)NC(=O)[C@H](CC(C)C)NC(=O)[C@H](CCCN=C(N)N)NC(=O)[C@@H](NC(=O)[C@H](CC(C)C)NC(=O)[C@@H](NC(=O)[C@@H](NC(=O)[C@H](CC(C)C)NC(=O)[C@H](CC(C)C)NC(=O)[C@@H](N)C(C)C)C(C)C)[C@@H](C)O)[C@@H](C)O)C(C)C)C(=O)N[C@@H](Cc1ccc(O)cc1)C(=O)N[C@@H](CCCN=C(N)N)C(=O)N[C@@H](CCCCN)C(=O)N[C@@H](Cc1c[nH]c2ccccc12)C(=O)N[C@@H](CCCN=C(N)N)C(=O)N[C@@H](Cc1cnc[nH]1)C(=O)N[C@@H](Cc1ccccc1)C(=O)N[C@@H](CO)C(=O)NCC(=O)N[C@@H](CCCN=C(N)N)C(=O)N[C@@H](CCCCN)C(=O)N[C@@H](Cc1ccc(O)cc1)C(=O)N[C@@H](CCCN=C(N)N)C(=O)O [VLLVTLTRLHQRGVIYRKWRHFSGRKYR]	–	–	–	–	–	–	–	–	–	–	–	–	–	–	–	–	–	–	–	–	MIC [13]: ≥ 50 µM; MIC [14]: 25 µM (≈ 88.5 µg/mL); MIC [15]: 12.5 µM (≈ 44.3 µg/mL); MIC [16]: 25 µM (≈ 88.5 µg/mL); MIC [17]: 25 µM (≈ 88.5 µg/mL); MIC [18]: 25 µM (≈ 88.5 µg/mL)
CC(=O)[C@H](CC(C)C)NC(=O)[C@H](Cc1ccc(O)cc1)NC(=O)[C@H](Cc1cnc[nH]1)NC(=O)[C@H](CC(=O)O)NC(=O)[C@@H](NC(=O)[C@H](C)NC(=O)[C@H](CC(C)C)NC(=O)CNC(=O)CNC(=O)[C@@H](NC(=O)[C@@H](NC(=O)[C@H](CCCCN)NC(=O)CNC(=O)[C@@H](NC(=O)[C@H](CCCCN)NC(=O)[C@H](CCCCN)NC(=O)[C@H](C)NC(=O)[C@H](CCCNC(=N)N)NC(=O)[C@H](CC(N)=O)NC(=O)[C@H](Cc1ccccc1)NC(=O)[C@H](Cc1c[nH]c2ccccc12)NC(=O)[C@H](CCCCN)NC(=O)[C@H](CCCCN)NC(=O)[C@H](Cc1c[nH]c2ccccc12)NC(=O)CN)C(C)C)[C@@H](C)O)C(C)C)C(C)C [GWKKWFNRAKKVGKTVGGLAVDHYL]	2.8 (≈ 7.99 µg/mL)	0.7 (≈ 2 µg/mL)	2.8 (≈ 7.99 µg/mL)	1.4 (≈ 4 µg/mL)	0.7 (≈ 2 µg/mL)	0.7 (≈ 2 µg/mL)	1.4 (≈ 4 µg/mL)	0.7 (≈ 2 µg/mL)	0.35 (≈ 0.999 µg/mL)	5.6 (≈ 16 µg/mL)	2.8 (≈ 7.99 µg/mL)	0.7 (≈ 2 µg/mL)	–	–	–	–	–	–	–	–	–
CC[C@H](C)[C@H](NC(=O)CNC(=O)[C@H](CCC(N)=O)NC(=O)[C@H](Cc1ccccc1)NC(=O)[C@@H](NC(=O)[C@H](CCCCN)NC(=O)[C@H](CCCCN)NC(=O)[C@H](CC(C)C)NC(=O)[C@H](C)NC(=O)[C@H](CC(N)=O)NC(=O)[C@H](CC(C)C)NC(=O)[C@@H](N)Cc1c[nH]c2ccccc12)C(C)C)C(=O)N[C@@H](Cc1cnc[nH]1)C(=O)N[C@@H](CCC(=O)O)C(=O)N[C@@H](C)C(=O)N[C@H](C(=O)N[C@@H](CCCCN)C(=O)N[C@@H](CC(C)C)C(=O)N[C@H](C(=O)N[C@@H](CC(N)=O)C(=O)N[C@@H](CC(N)=O)C(=O)N[C@@H](Cc1cnc[nH]1)C(=O)N[C@H](C(=O)N[C@@H](CCC(N)=O)C(N)=O)C(C)C)[C@@H](C)CC)[C@@H](C)CC [WLNALKKVFQGIHEAIKLINNHVQ]	–	–	–	–	–	–	–	–	–	–	–	–	16 (≈ 45 µg/mL)	16 (≈ 45 µg/mL)	≥ 32	≥ 32	16 (≈ 45 µg/mL)	32 (≈ 90 µg/mL)	≥ 64	16 (≈ 45 µg/mL)	MIC [27]: ≥ 32 µM; MIC [28]: 16 µM (≈ 45 µg/mL); MIC [29]: ≥ 32 µM; MIC [30]: ≥ 64 µM; MIC [31]: 16 µM (≈ 45 µg/mL); MIC [32]: 16 µM (≈ 45 µg/mL)
CC[C@H](C)[C@H](NC(=O)CNC(=O)[C@H](CCC(N)=O)NC(=O)[C@H](CO)NC(=O)[C@@H](NC(=O)[C@H](CCCCN)NC(=O)[C@H](CCCCN)NC(=O)[C@H](CC(C)C)NC(=O)[C@H](C)NC(=O)[C@H](CC(N)=O)NC(=O)[C@H](CC(C)C)NC(=O)CN)C(C)C)C(=O)N[C@@H](Cc1cnc[nH]1)C(=O)N[C@@H](CCC(=O)O)C(=O)N[C@@H](C)C(=O)N[C@H](C(=O)N[C@@H](CCCCN)C(=O)N[C@@H](CC(C)C)C(=O)N[C@H](C(=O)N[C@@H](CC(N)=O)C(=O)N[C@@H](CC(N)=O)C(=O)N[C@@H](Cc1cnc[nH]1)C(=O)N[C@H](C(=O)N[C@@H](CCC(N)=O)C(N)=O)C(C)C)[C@@H](C)CC)[C@@H](C)CC [GLNALKKVSQGIHEAIKLINNHVQ]	–	–	–	–	–	–	–	–	–	–	–	–	16 (≈ 42 µg/mL)	16 (≈ 42 µg/mL)	≥ 32	≥ 64	≥ 32	32 (≈ 84 µg/mL)	≥ 64	≥ 64	MIC [27]: ≥ 64 µM; MIC [28]: 16 µM (≈ 42 µg/mL); MIC [29]: ≥ 32 µM; MIC [30]: ≥ 64 µM; MIC [31]: ≥ 64 µM; MIC [32]: ≥ 32 µM
